“And” between values parts separate entries of the source, which are not always exact repeats. Equal values may be shown once.

Broadly, the melting point is the temperature of the solid-liquid transition. The molecule `O=Cc1csnn1` [1,2,3-thiadiazole-4-carboxaldehyde] yielded a melting point of 85 °C.

Consider `COC(=O)c1ccccc1O` [methyl_salicylate], for which the melting point was -7 °C.

`C[C@@H](O)[C@@H](N)C(=O)O` [D-allo-threonine] returned a melting point of 278 °C.

As to `CC(=O)c1ccccc1C#N` [o-acetyl_benzonitrile], the melting point turned out to be 48 °C.

As for `Cc1nc(-c2ccc(-c3nc(C)c(-c4ccccc4)o3)cc2)oc1-c1ccccc1` [1,4-bis(4-methyl-5-phenyloxazol-2-yl)benzene], the melting point was found to be 234 °C.

Consider `[O-][n+]1ccccc1S` [2-mercaptopyridine n-oxide], for which the melting point came to 71 °C.

Molecule `CCCCCCCCCCCCCCCCCCC` [Nonadecane] displayed a melting point of 33 °C.

`c1ccc2c(c1)Cc1cc3ccccc3cc1-2` [2,3-benzofluorene] yielded a melting point of 210 °C.

Turning to `COC(=O)c1ccccc1C(N)=O` [phthalic_acid,_methylester_amide], the melting point stood at 100 °C.

For the molecule `Nc1ccc2[nH]c(C(F)(F)F)nc2c1` [5-amino-2-(trifluoromethyl)benzimidazole], the melting point turned out to be 188 °C.

On to `[C-]#[N+]C1CCCCC1` [Cyclohexyl isocyanide], for which the melting point was 6 °C.

In turn, `O=[N+]([O-])c1cc[n+]([O-])c(Cl)c1` [2-chloro-4-nitropyridine n-oxide] displayed a melting point of 154 °C.

Regarding `O=S(=O)(Cl)c1ccc(Cl)c(Cl)c1Cl` [2,3,4-trichlorobenzenesulfonyl chloride], the melting point amounted to 63 °C.

Regarding `N=C(NCCCCCCNC(=N)NC(=N)Nc1ccc(Cl)cc1)NC(=N)Nc1ccc(Cl)cc1` [Chlorhexidine], the melting point stood at 134 °C.

With `Cc1cccc(O)c1C` [2,3-dimethylphenol], the melting point is 75 °C and 72.5 °C.

As for `Cc1cccc(B(O)O)c1` [3-methylbenzeneboronic acid], the melting point is 161 °C.

Molecule `CCCCCc1ccc(O)cc1` [4-n-pentylphenol] returned a melting point of 24 °C.

With `CCCC(=O)Nc1ccc(OCC(O)CNC(C)C)c(C(C)=O)c1` (stereo not given) [acebutolol], the melting point was determined as 119 °C.

`O=Cc1ccc(-c2ccccc2)cc1` [biphenyl-4-carboxaldehyde]: the melting point is 59 °C.

In the case of `O=C(N[C@H](CO)Cc1ccccc1)OCc1ccccc1` [N-benzyloxycarbonyl-l-phenylalaninol], the melting point was 94 °C.

In turn, `Cc1cc(Cl)ccc1Cl` [2,5-dichlorotoluene] had a melting point of 5 °C.

Regarding `CCN(CC)c1ccccc1` [n,n-diethylaniline], the melting point was -38 °C.

For the molecule `CC1(C)CC(=O)C(=NNc2ccccc2[N+](=O)[O-])C(=O)C1`, the melting point stood at 140 °C.

Consider `N#CCCc1ccccc1` [3-phenylpropionitrile], for which the melting point is -2 °C.

Consider `CC(Br)CBr` (stereo not given) [1,2-dibromopropane], for which the melting point was -55 °C.

As for `CC(=O)NS(=O)(=O)c1ccc(N)cc1` [Sulfacetamide], the melting point worked out at 183 °C.

Consider `CCOC(=O)c1csc(C)n1` [ethyl 2-methyl-1,3-thiazole-4-carboxylate], for which the melting point came to 57 °C.

As for `COC(=O)CC(=O)OC` [dimethyl malonate], the melting point was -62 °C.

`N#CCc1ccc(Br)cc1` [p-bromophenylacetonitrile] had a melting point of 48 °C.

Regarding `CCCCOB(OCCCC)OCCCC` [Tributyl borate], the melting point was -70 °C.

Molecule `OB(O)c1cc(F)c(F)c(F)c1` [3,4,5-trifluorobenzeneboronic acid] gave a melting point of 277 °C.

`O=C(O)CCCC[C@@H]1SC[C@@H]2NC(=O)N[C@@H]21` [Biotin] registered a melting point of 232 °C.

In the case of `CCc1ccc(N)cc1` [4-ethylaniline], the melting point was -5 °C.

Turning to `CCCCCCCCCCCCCCCC` [Hexadecane], the melting point came out at 18 °C.

In turn, `Oc1cc(Cl)ccc1Oc1ccc(Cl)cc1Cl` [5-chloro-2-(2,4-dichlorophenoxy)phenol] registered a melting point of 57 °C.

`CCOC(=O)OCC` [diethyl carbonate]: the melting point is -43 °C.

With `O=[N+]([O-])c1cc(Cl)ccc1O` [2-Nitro-4-chlorophenol], the melting point came out at 89 °C.

Regarding `CCCCCCC` [Heptane], the melting point was -91 °C.

For the molecule `CCCCOC(=O)c1ccccc1C(=O)OCCCC` [di-n-butyl phthalate], the melting point is -35 °C.

Consider `CC12CCC(C(=O)C1=O)C2(C)C` (stereo not given) [camphorquinone], for which the melting point stood at 200 °C.

The molecule `COC(=O)/C(=C\c1ccccc1)Cc1ccccc1` [methyl (2Z)-2-benzyl-3-phenylprop-2-enoate] registered a melting point of 28 °C.

Turning to `CC(=O)C(=Cc1ccc(-c2cccc([N+](=O)[O-])c2)o1)C(C)=O`, the melting point is 154 °C.

Turning to `C=COCCCC` [N-butyl vinyl ether], the melting point is -113 °C.

Take `O=C(O)COCCNC(=O)C12CC3CC(CC(C3)C1)C2`: the melting point was found to be 122 °C.

With `O=C(O)c1cc(Cl)sc1Cl` [2,5-dichlorothiophene-3-carboxylic acid], the melting point came out at 148 °C.

Regarding `COC(=O)CCC(C)C1CCC2C3CCC4CC(=O)CCC4(C)C3CC(=O)C12C` (stereo not given) [methyl 3,12-dioxocholan-24-oate], the melting point is 130 °C.

Take `Cc1ccc(N)c([N+](=O)[O-])c1` [4-Methyl-2-nitroaniline]: the melting point was 117 °C.

On to `CCCCCCCCCl` [1-chlorooctane], for which the melting point was -58 °C.

In the case of `ClCc1cccc(CCl)c1` [m-xylylene dichloride], the melting point was determined as 35 °C.

With `CNC(C)=O` [N-methylacetamide], the melting point is 27 °C.

`c1cc(ccc1NC(=O)/C=CC(=O)O)F` [N-(4-fluorophenyl)maleamic acid] yielded a melting point of 208 °C.

As to `O=C(O)c1ccccc1O` [salicylic acid], the melting point is 158 °C and 157 °C.

In turn, `Nc1ccc(C(=O)O)c(O)c1` [p-aminosalicylic acid] had a melting point of 150 °C.

Regarding `Nc1cccc2ccccc12` [1-aminonaphthalene], the melting point turned out to be 49 °C.

For the molecule `c1ccc(-c2nc3ccccc3[nH]2)cc1` [2-phenylbenzimidazole], the melting point turned out to be 297 °C.

The molecule `Cc1ccc(-c2ccccc2)s1` [2-methyl-5-phenylthiophene] gave a melting point of 48 °C.

For `CC1(C)CC(=O)c2c(cc3c(c2[Si](C)(C)C)-c2ccccc2OC3)C1`, the melting point came out at 143 °C.

For `Cc1ccccc1CNC(=O)c1ccccc1` [N-(2-methylbenzyl)benzamide], the melting point came to 118 °C.

For the molecule `O=Cc1ccccc1B(O)O` [2-formylbenzeneboronic acid], the melting point stood at 118 °C.

For the molecule `O/N=C/C1=C(/C=C/c2ccccc2)CCC1`, the melting point turned out to be 163 °C.

As for `CCCCNC(=O)C(c1cc(OC)cc(OC)c1)N(Cc1ccccc1)C(=O)C#Cc1ccccc1` (stereo not given) [Ugi product 173G (UC)], the melting point was determined as 138 °C.

On to `Oc1cccc(O)c1O` [1,2,3-trihydroxybenzene], for which the melting point is 134 °C.

In the case of `N#Cc1cc([N+](=O)[O-])ccc1F` [2-fluoro-5-nitrobenzonitrile], the melting point is 71 °C.

For `SC(c1ccccc1)(c1ccccc1)c1ccccc1` [triphenylmethyl mercaptan], the melting point worked out at 106 °C.

For the molecule `Nc1ccc(S(=O)(=O)Nc2ncccn2)cc1` [sulfadiazine], the melting point came to 255 °C.

For the origin of these results see the Bradley open melting point set (2014).
